# Patent US5733880A, “Anthracene derivatives for use as anticancer agents” (Napier University Ventures Limited, priority 1993, dated 1998)
# Key:
# [1] = test system: K562; test: In vitro chemosensitivity, microtetrazolium (MTT) assay, K562; type: cell-based; conditions: K562 human chronic myelogenous leukaemia, concentration reducing growth rate by 50% of untreated control
# Description: (§1) The cytotoxic properties of selected examples were evaluated against a panel of established human tumour cell lines.
# (§2) K562--a human chronic myelogenous leukaemia (Lozzio and Lozzio, 1975). HRT--18--a human primary adenocarcinoma from the human rectum (Tompkins et al, 1974).
# (§3) Chemosensitivity in vitro was assessed using the microtetrazolium assay (MTT assay) (Twentyman & Luscombe, 1987).
# (§4) Examples were soluble in 5% ethanol/saline. To each well, 20 μl of drug solution was added to give a final drug concentration of 0.1-100 μg/ml at four log increments. Solvent controls were used throughout, and the first row of each plate contained media plus drug in the absence of any cells. Each point is the result of three separate experiments and cytotoxic effects are expressed in terms of percent survival, taking the optical density of the control plates to represent 100% survival.
# (§5) IC50 values are the average concentrations of drug required to reduce the growth rate by 50% of the untreated control system.
# [2] = test system: HT-29; test: In vitro chemosensitivity, microtetrazolium (MTT) assay, HT-29; type: cell-based; conditions: HT-29 human colon adenocarcinoma, concentration reducing growth rate by 50% of untreated control
# Description: as §1
# (§6) HT-29 primary adenocarcinomas of the human colon.
# as §3, §4, §5
# [3] = test system: DLD-1; test: In vitro chemosensitivity, microtetrazolium (MTT) assay, DLD-1; type: cell-based; conditions: DLD-1 human colon adenocarcinoma, concentration reducing growth rate by 50% of untreated control
# Description: as §1, §6, §3, §4, §5
# [4] = test system: HCLO; test: In vitro chemosensitivity, microtetrazolium (MTT) assay, HCLO; type: cell-based, human; conditions: concentration reducing growth rate by 50% of untreated control
# Description: as §1, §6, §3, §4, §5
# [5] = test system: HRT-18; test: In vitro chemosensitivity, microtetrazolium (MTT) assay, HRT-18; type: cell-based; conditions: HRT-18 human rectum adenocarcinoma, concentration reducing growth rate by 50% of untreated control
# Description: as §1, §2, §3, §4, §5
# [6] = test system: man; conditions: in man; cited from earlier work
# [7] = test system: rodents; conditions: in rodents; cited from earlier work
IC50 [1] [µM],IC50 [2] [µM],IC50 [3] [µM],Structure (SMILES),IC50 ([4]; Homo sapiens) [µM],IC50 [5] [µM],IC50 [4] [µM],maximum dose [6] [mg/kg],maximum dose [7] [mg/kg]
22.8,14.2,8.6,"N[C@H](Cc1ccccc1)C(=O)NCCCCNc1cccc2c1C(=O)c1ccccc1C2=O [Example 20, 1-[(4-D-phenylalanylaminobutyl)amino]-anthracene-9,10-dione]",21.4,16.8,–,–,–
–,–,–,COc1cccc2c1C(=O)c1c(O)c3c(c(O)c1C2=O)C[C@@](O)(C(=O)CO)C[C@@H]3O[C@H]1C[C@H](N)[C@H](O)[C@H](C)O1 [doxorubicin],–,–,–,1 to 2,5
17.2,7.8,4.1,CSCC[C@H](N)C(=O)NCCCNc1cccc2c1C(=O)c1ccccc1C2=O [Example 12],–,10.4,11.8,–,–
14.2,0.6,2.1,"N[C@@H](Cc1ccc(O)cc1)C(=O)NCCCNc1cccc2c1C(=O)c1ccccc1C2=O [Example 15, 1-[3-(L-tyrosinylaminopropyl)amino]-anthracene-9,10-dione]",–,3,6.7,–,–

Structure (SMILES),IC50 [1] [µM],IC50 [2] [µM],IC50 [3] [µM],IC50 ([4]; Homo sapiens) [µM],IC50 [5] [µM],IC50 [4] [µM],maximum dose [6] [mg/kg],maximum dose [7] [mg/kg]
"CC(C)(C)OC(=O)N[C@H](Cc1ccccc1)C(=O)NCCCNc1cccc2c1C(=O)c1ccccc1C2=O [Example 18, 1-[(3-N-tertiarybutoxycarbonyl-D-phenylalanylamino-propyl)amino]-anthracene-9,10-dione]",19.8,2.5,13.2,–,7.7,17.4,–,–
